Test system: MGC-803
Experiment: Induction of apoptosis in human MGC-803 cells assessed as late apoptotic cells at 24 micromol/L for 48 hrs by annexinV-FITC/PI staining based flow cytometric analysis (reference value: 1.32%)
Assay type: functional
Conditions: dose 24 µmol/L, at 24 µM

SMILES: O=C(c1cccc(CN[C@@H]2C[C@H]2c2ccc(F)c(F)c2)c1)N1CCN(c2ccc(Cl)c(Cl)c2)CC1
- Activity: 9.98%

From ChEMBL document CHEMBL5346906, “Discovery of novel tranylcypromine-based derivatives as LSD1 inhibitors for gastric cancer treatment” (Eur J Med Chem, 2023)
